According to US10898469B2, “Imidazolylamide derivative” (Sumitomo Dainippon Pharma Co., Ltd., priority 2016, dated 2021):
Read-outs that look alike come from different tables or passages of the source.

Tests used:
[1] = Pharmacokinetic assay in tumor-bearing mice where HCT-116 cells were transplanted (Test Example 3); type: in vivo; conditions: female, BALB/cAnNCrlj-nu/nu, plasma, tumor-bearing nude mouse; for concentration at 1 h: read-out: Plasma concentrations after oral administration, 1 hour; for concentration at 2 h: read-out: Plasma concentrations after oral administration, 2 hours; for concentration at 6 h: read-out: Plasma concentrations after oral administration, 6 hours; for concentration at 24 h: read-out: Plasma concentrations after oral administration, 24 hours
Method: A 7- to 12-week-old nude mouse (BALB/cAnNCrlj-nu/nu, female, CHARLES RIVER LABORATORIES JAPAN, INC.) received intradermal transplantation of human colorectal cancer-derived HCT-116 cells (ATCC) in an amount of 3×10^6 cells/mouse around the ventral part. […] Blood was collected 1, 2, 6, and 24 hours after administration, and centrifuged to afford plasma samples. Methanol was added to the plasma samples so as to be adjusted to 80% of the final concentration. The samples were centrifuged and filtered to be deproteinized. Then, the test compound was detected and quantitated with LC-MS/MS (API4000, AB SCIEX). In quantitation, a calibration curve was prepared with mouse plasma comprising a known amount of the compound and Bezafibrate was used for the internal standard.
The test in Test Example 3 was performed for the compounds of Examples.
The following table and FIGS. 1 to 5 show temporal changes of the plasma concentrations of compounds after oral administration.

HCT-116 cells [2] = test: Drug efficacy assay in tumor-bearing mice where HCT-116 cells were transplanted (Test Example 4); type: in vivo; conditions: HCT-116 tumor-bearing nude mouse, oral, dosage 200 mg/kg, administration period 15 days
Excerpt: The present compound can be used to evaluate the anti-tumor effect thereof according to the following assay. A 4- to 7-week-old nude mouse (BALB/cAnNCrj-nu/nu, female, CHARLES RIVER LABORATORIES JAPAN, INC.) received intradermal transplantation of human colorectal cancer-derived HCT-116 cells (ATCC) in an amount of 3×10^6 cells/mouse around the ventral portion. The engraftment of HCT-116 cells was observed 5 to 14 days after the transplantation, and then each compound suspended in a solvent such as 0.5% methylcellulose solution was orally administrated to the mouse in a dose of 1 to 200 mg/kg one to twice daily. The tumor volume was measured over time after the administration to evaluate the effect for reducing the tumor volume by the administration of each compound. The tumor volume can be calculated from the minor axis and major axis of the tumor measured with a digital caliper (Mitutoyo) according to the following equation: Tumor volume [mm^3]=[…] The tumor volume in the present-compound-administration group was compared with that of the control administration group treated with only a solvent such as 0.5% methylcellulose solution, and T/C value was calculated according the following equation to evaluate the anti-tumor effect of the present compound. […]

[3] = Solid state thermal stability; type: physicochemical; conditions: 70° C., vessel left open; for solid state thermal stability (change of form): stored for 12 weeks
Method: The solid state thermal stability was measured for the compounds of Examples 237 and 238 according to the following method. The compounds of Examples 237 and 238 were put into an isothermal vessel set at 70° C., and the samples were stored for 12 weeks under the condition that the vessel was left open. Each elemental analysis result for each compound after 12 weeks is shown as follows.

HCT-116 cells [4] = test: Inhibition test for sphere-forming ability of cancer cells (Test Example 1), HCT-116; type: cell-based, human; conditions: HCT-116 cells; concentration for 50% inhibition of cell proliferation; read-out: IC50 (μmol/L) HCT-116 (Sphere IC50 value)
Outline: (§1)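 Cells were seeded at 350-800 cells/well in ultra-low-attachment plates in serum-free DMEM/F12 with 2% B27, 20 ng/mL EGF, 10 ng/mL bFGF and 5 μg/mL insulin. Compounds were added at 0.1% final DMSO for 4 days. Viable cells were read by CellTiter-Glo luminescence to give Sphere IC50 (μmol/L).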

HT-29 cells [5] = test: Inhibition test for sphere-forming ability of cancer cells in the presence of BSA (Test Example 2), HT-29; type: cell-based, human; conditions: in the presence of 5% BSA, cultured 4 days
Outline: (§2)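 Spheres grown 4 days in ultra-low-attachment wells, 350-800 cells/well, in DMEM/F12 with 2% B27, 20 ng/mL EGF, 10 ng/mL bFGF, 5 μg/mL insulin and 5% BSA; 0.1% DMSO final. Viable cells read by CellTiter-Glo luminescence; Sphere IC50 (μmol/L) for 50% proliferation inhibition.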

HCT-116 cells [6] = test: Inhibition test for sphere-forming ability of cancer cells in the presence of BSA (Test Example 2), HCT-116; type: cell-based, human; conditions: HCT-116 cells, in the presence of 5% BSA, cultured 4 days
Outline: as §2

HT-29 cells [7] = test: Inhibition test for sphere-forming ability of cancer cells (Test Example 1), HT-29; type: cell-based, human; conditions: concentration for 50% inhibition of cell proliferation, read-out: IC50 (μmol/L) HT-29 (Sphere IC50 value)
Outline: as §1

FaDu cells [8] = test: Inhibition test for sphere-forming ability of cancer cells (Test Example 1), FaDu; type: cell-based, human; conditions: concentration for 50% inhibition of cell proliferation, read-out: IC50 (μmol/L) FaDu (Sphere IC50 value)
Outline: as §1

FaDu cells [9] = test: Inhibition test for sphere-forming ability of cancer cells in the presence of BSA (Test Example 2), FaDu; type: cell-based, human; conditions: in the presence of 5% BSA, cultured 4 days
Outline: as §2

[10] = oral single dose 150 mg/kg, 0.5% methylcellulose
[11] = oral single dose 100 mg/kg, 20% Labrasol
[12] = oral single dose 60 mg/kg, 0.5% methylcellulose

concentration at 1 h [1, 11] | concentration at 2 h [1, 11] | concentration at 6 h [1, 11] | concentration at 24 h [1, 11] | IC50 (HCT-116 cells [4]) | IC50 (HT-29 cells [5]) | IC50 (HCT-116 cells [6]) | IC50 (HT-29 cells [7]) | IC50 (FaDu cells [8]) | IC50 (FaDu cells [9]) | Structure (SMILES) | other results
 |  |  |  |  |  |  |  |  |  | O=C(/C=C/c1cccnc1)Nc1cn(Cc2cccc(Cl)c2)cn1 [Example 120, (E)-N-(1-(3-chlorobenzyl)-1H-imidazol-4-yl)-3-(pyridin-3-yl)acrylamide] | concentration at 1 h [1, 10]: 9220 ng/mL; concentration at 2 h [1, 10]: 7040 ng/mL; concentration at 6 h [1, 10]: 1200 ng/mL; concentration at 24 h [1, 10]: 142 ng/mL
160 ng/mL | 642 ng/mL | 467 ng/mL | 221 ng/mL |  |  |  |  |  |  | CC(=O)Nc1ccc(/C=C/C(=O)Nc2cn(Cc3cccc(C(F)(F)F)c3)cn2)cc1.Cl [Example 122, (E)-N-(1-(3-trifluoromethyl-benzyl)-1H-imidazol-4-yl)-3-(4-(acetylamino)phenyl)acrylamide] | T/C (HCT-116 cells [2]): 51%
287 ng/mL | 837 ng/mL | 79 ng/mL | 62 ng/mL |  |  |  |  |  |  | CC(=O)Nc1ccc(/C=C/C(=O)Nc2cn(Cc3cccc(OC(F)(F)F)c3)cn2)cc1 [Example 123] | 
4700 ng/mL | 610 ng/mL | 644 ng/mL | 13 ng/mL |  |  |  |  |  |  | COc1ccc(/C=C/C(=O)Nc2cn(Cc3cccc(C(F)(F)F)c3)cn2)cc1OCCO [Example 128] | 
465 ng/mL | 309 ng/mL | 271 ng/mL |  |  |  |  |  |  |  | N#Cc1ccc(/C=C/C(=O)Nc2cn(Cc3cccc(Cl)c3)cn2)cc1OCCO [Example 129] | 
 |  |  |  |  |  |  |  |  |  | COc1ccc(C(=O)Nc2cn(Cc3cc(F)c(F)c(F)c3)cn2)cc1OC.Cl [Example 237, 3,4-dimethoxy-N-[1-(3,4,5-trifluorobenzyl)-1H-imidazol-4-yl]benzamide] | Elemental analysis C (%) measured value after 12 weeks ([3]; 12 weeks): 54.71%; Elemental analysis Cl (%) measured value after 12 weeks ([3]; 12 weeks): 4.00%; Elemental analysis F (%) measured value after 12 weeks ([3]; 12 weeks): 13.74%; Elemental analysis H (%) measured value after 12 weeks ([3]; 12 weeks): 4.31%; Elemental analysis N (%) measured value after 12 weeks ([3]; 12 weeks): 10.28%; solid state thermal stability (change of form) [3]: changed to 0.5 hydrochloride 0.5 hydrate; concentration at 1 h [1, 12]: 13200 ng/mL; concentration at 2 h [1, 12]: 9760 ng/mL; concentration at 6 h [1, 12]: 3390 ng/mL; concentration at 24 h [1, 12]: 4 ng/mL
 |  |  |  |  |  |  |  |  |  | COc1ccc(C(=O)Nc2cn(Cc3cc(F)c(F)c(F)c3)cn2)cc1OC [Example 238, 3,4-Dimethoxy-N-[1-(3,4,5-trifluorobenzyl)-1H-imidazol-4-yl]benzamide tosilate] | Elemental analysis C (%) measured value after 12 weeks ([3]; 12 weeks): 55.51%; Elemental analysis F (%) measured value after 12 weeks ([3]; 12 weeks): 10.15%; Elemental analysis H (%) measured value after 12 weeks ([3]; 12 weeks): 4.33%; Elemental analysis N (%) measured value after 12 weeks ([3]; 12 weeks): 7.48%; Elemental analysis S (%) measured value after 12 weeks ([3]; 12 weeks): 5.62%; solid state thermal stability (change of form) [3]: not changed
 |  |  |  | 0.77 µmol/L | 5750 nM | 9060 nM | 0.7 µmol/L | 0.71 µmol/L | 5190 nM | Cc1cccc(NC(=O)c2cn(Cc3cccc(Cl)c3)cn2)n1 [Example 258] | 
 |  |  |  | 0.76 µmol/L | 4090 nM | 6810 nM | 0.71 µmol/L | 0.67 µmol/L | 3090 nM | O=C(Nc1ccc(Cn2cccn2)cc1)c1cn(Cc2cccc(Cl)c2)cn1 [Example 260] | 
 |  |  |  | 0.61 µmol/L | 520 nM | 860 nM | 0.46 µmol/L | 0.59 µmol/L | 480 nM | O=C(Nc1ccncn1)c1cn(Cc2cccc(Cl)c2)cn1 [Example 261] | 
